Data from PubChem BioAssay (NCI).
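Exposure lasted 48 hours, with cells grown in 96-well plates and compounds tested at five concentrations. TGI denotes the concentration required for complete inhibition of growth.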

Columns and labels:
Test in all cases: growth of human tumour cells (NCI), 48 h
SF-539 CNS = test system: SF-539 CNS
SK-MEL-5 melanoma = test system: SK-MEL-5 melanoma
U251 CNS = test system: U251 CNS
NCI-H23 lung = test system: NCI-H23 lung
A498 renal = test system: A498 renal
SF-295 CNS = test system: SF-295 CNS
SN12C renal = test system: SN12C renal
UO-31 renal = test system: UO-31 renal
PC-3 prostate = test system: PC-3 prostate
MDA-N = test system: MDA-N
SF-268 CNS = test system: SF-268 CNS
OVCAR-8 ovarian = test system: OVCAR-8 ovarian
UACC-257 melanoma = test system: UACC-257 melanoma
MCF7 breast = test system: MCF7 breast
T-47D breast = test system: T-47D breast
NCI-H522 lung = test system: NCI-H522 lung

Row | SMILES | TGI (SF-539 CNS) | TGI (SK-MEL-5 melanoma) | TGI (U251 CNS) | TGI (NCI-H23 lung) | TGI (A498 renal) | TGI (SF-295 CNS) | TGI (SN12C renal) | TGI (UO-31 renal) | TGI (PC-3 prostate) | TGI (MDA-N) | TGI (SF-268 CNS) | TGI (OVCAR-8 ovarian) | TGI (UACC-257 melanoma) | TGI (MCF7 breast) | TGI (T-47D breast) | TGI (NCI-H522 lung)
1 | CC(=O)c1sc2c(c1OC(=O)c1ccccc1)c(=O)n(-c1ccccc1)c(=S)n2-c1ccccc1 | 5.65 µM | 18.4 µM | 23.7 µM | > 71.9 µM | 7.87 µM | 16.7 µM | > 42.5 µM | 12.6 µM | 14.9 µM | 27.2 µM | > 63 µM | > 28.3 µM | > 23.9 µM | 99.8 µM | > 50.3 µM | 67.8 µM
2 | COc1c(-c2ccc(F)cc2)oc2c(CC(=O)O)cccc2c1=O | > 100 µM | > 100 µM | > 100 µM | > 100 µM | > 100 µM | > 100 µM | > 100 µM | 96.6 µM | > 100 µM | > 100 µM | > 100 µM | > 100 µM | > 100 µM | > 100 µM | > 100 µM | > 100 µM
3 | COC(=O)CCc1cc(OC)c2oc(-c3ccc(OC)c(OC)c3)c(CO)c2c1 | > 100 µM | > 100 µM | > 100 µM | > 100 µM | > 100 µM | > 100 µM | > 100 µM | > 100 µM | > 100 µM | > 100 µM | > 100 µM | > 100 µM | > 100 µM | > 100 µM | > 100 µM | > 100 µM
4 | CCCCCCc1cc2cc(-c3cn4ccccc4n3)c(=O)oc2cc1O | 7.19 µM | 22.1 µM | 10.2 µM | 17 µM | 50.7 µM | 34.1 µM | 17.5 µM | 20.7 µM | 32.7 µM | 18.9 µM | 6.94 µM | 28.5 µM | 50.9 µM | 17.5 µM | 52 µM | 15.1 µM
5 | Cc1nnc(N)nc1C/C=C/C(C)Sc1ccc(Cl)cc1 (stereo not given) |  | 22.9 µM | > 42 µM | 36 µM | 25.9 µM | 11.8 µM | > 80.6 µM | 19.4 µM | 17.8 µM | > 100 µM | 39.9 µM | > 56.5 µM | 30.8 µM | 33.2 µM | 42.4 µM | 16.1 µM
6 | CC1=C(C(=O)NNC(=O)c2ccccc2O)CC(C(=O)NNC(=O)c2ccccc2O)=C(C)N1 | 41.8 µM | > 100 µM | > 100 µM | > 100 µM |  | > 100 µM | > 100 µM | 18.8 µM | > 100 µM | > 100 µM | > 100 µM | > 65.3 µM | > 100 µM | > 48.5 µM | > 32.6 µM | > 26.7 µM
7 | O=C(O)c1ccc(Nc2nc3ccc(C(F)(F)F)cc3nc2-c2ccccc2)cc1 | 90.8 µM | > 100 µM | > 100 µM | > 100 µM |  | > 100 µM | > 100 µM | 55.1 µM | > 100 µM | > 100 µM | > 100 µM | > 100 µM | > 100 µM | > 100 µM | 52.8 µM | > 100 µM
8 | CCOC(=O)c1cc(C2CCN(Cc3ccccc3)C2=O)c(C(=O)/C=C(/C)N)[nH]1 (stereo not given) |  | > 100 µM | > 100 µM | > 100 µM | > 100 µM | > 100 µM |  | > 100 µM | > 100 µM | > 100 µM | > 100 µM | > 100 µM | > 100 µM | > 100 µM | > 100 µM | > 100 µM
9 | Cc1cnc2c(c1)C(=O)N(c1ccc(Br)cc1)S2(=O)=O | > 100 µM | > 100 µM | > 100 µM | > 100 µM |  | > 100 µM | > 100 µM | > 100 µM | > 100 µM | > 100 µM | > 100 µM | > 100 µM | > 100 µM | > 100 µM | > 100 µM | > 100 µM
10 | O=C(O)c1ccc(Nc2nc3ccc(C(F)(F)F)cc3nc2C(=O)O)cc1 | > 100 µM | > 100 µM | > 100 µM | > 100 µM |  | > 100 µM | > 100 µM | > 100 µM | > 100 µM | > 100 µM | > 100 µM | > 100 µM | > 100 µM | > 100 µM | > 100 µM | > 100 µM
11 | O=C(O)c1ccccc1/C=N\N(CCO)C1=NCCN1 | > 100 µM | > 100 µM | > 100 µM | > 100 µM |  | > 100 µM | > 100 µM | > 100 µM | > 100 µM | > 100 µM | > 100 µM | > 100 µM |  | > 100 µM | > 100 µM | 
12 | Clc1ccc2c(c1)CC1C[N+]3=C(CCCCC3)C1=C2 (stereo not given) |  | > 100 µM | > 100 µM | > 100 µM | > 100 µM | > 100 µM | > 100 µM | > 100 µM | > 100 µM | > 100 µM | > 100 µM | > 100 µM | 94.1 µM | > 100 µM | > 100 µM | > 100 µM
13 | CC(NNC(=S)N1CCCC1)c1cccnn1 (stereo not given) | 4.36 µM | 5.39 µM | > 100 µM | > 100 µM | 97.5 µM | > 28.2 µM | > 100 µM | 3.08 µM | > 100 µM | > 100 µM |  |  |  | 5.33 µM | > 100 µM | 
14 | C/C1=C\CC[C@@]2(C)O[C@@H]2C[C@@H]2[C@H](C/C(C)=C/CC1)OC(=O)[C@]21CO1 |  | > 100 µM | > 100 µM | > 100 µM | > 100 µM | > 100 µM | > 100 µM | > 100 µM | > 100 µM | > 100 µM | > 100 µM | > 100 µM | > 100 µM | > 100 µM | > 100 µM | > 100 µM
15 | COC(=O)N1C2C(C[C@@]1(C)C(=O)OC)c1ccccc1N2S(=O)(=O)c1ccccc1 (stereo not given in full) |  | > 100 µM |  | > 100 µM |  | > 100 µM |  | > 100 µM | > 100 µM | > 100 µM | > 100 µM | > 100 µM | > 100 µM | > 100 µM | > 100 µM | > 100 µM
